Results published in ChEMBL document CHEMBL4417625, “Therapeutic compounds and methods” (2016).
Calls of active or inactive are those of the source. The rule behind the calls is not given here.

How the values were obtained:
[1] = target: T1, Regulator of G-protein signaling 17 (Homo sapiens) (UniProt Q9UGC6); assay: Inhibition of RGS17 (unknown origin) assessed as reduction in RGS17 interaction with 6x-his-tagged biotinylated Galpha-o interaction by Alpha-screen assay
T1 sequence (whole entry): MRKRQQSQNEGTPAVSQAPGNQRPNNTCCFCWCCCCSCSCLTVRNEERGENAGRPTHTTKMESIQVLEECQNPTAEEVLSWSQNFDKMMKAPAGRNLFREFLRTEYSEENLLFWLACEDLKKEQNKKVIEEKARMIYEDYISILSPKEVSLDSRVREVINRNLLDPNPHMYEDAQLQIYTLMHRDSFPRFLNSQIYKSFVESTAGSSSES

[2] = target: T1, Regulator of G-protein signaling 17 (Homo sapiens); assay: Binding affinity to RGS17 (unknown origin) assessed as shifting of protein melting temperature by Sypro-orange dye based differential scanning fluorimetry
[3] = target: Guanine nucleotide-binding protein G(o) subunit alpha (Homo sapiens) (UniProt P09471); assay: Binding affinity to Galpha-o (unknown origin) assessed as shifting of protein melting temperature by Sypro-orange dye based differential scanning fluorimetry
Sequence of Guanine nucleotide-binding protein G(o) subunit alpha (Homo sapiens) (P09471 2-354 limits assumed): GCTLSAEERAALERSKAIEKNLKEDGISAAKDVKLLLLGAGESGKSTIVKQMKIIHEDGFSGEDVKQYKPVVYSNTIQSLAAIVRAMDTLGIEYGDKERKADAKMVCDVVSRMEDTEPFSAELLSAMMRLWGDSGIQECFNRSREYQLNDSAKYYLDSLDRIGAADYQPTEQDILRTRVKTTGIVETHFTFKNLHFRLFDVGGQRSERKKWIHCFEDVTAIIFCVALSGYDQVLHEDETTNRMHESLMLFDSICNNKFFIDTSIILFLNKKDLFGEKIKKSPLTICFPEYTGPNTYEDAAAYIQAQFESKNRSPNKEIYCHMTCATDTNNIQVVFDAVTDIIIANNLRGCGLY

[4] = target: T1, Regulator of G-protein signaling 17 (Homo sapiens); assay: Inhibition of RGS17 (unknown origin) assessed as reduction in RGS17 interaction with 6x-his-tagged biotinylated Galpha-o interaction at 100 uM followed by 3 times drug wash out with ASB buffer by Alpha-screen assay
[5] = target: T1, Regulator of G-protein signaling 17 (Homo sapiens); assay: Inhibition of RGS17 (unknown origin) assessed as reduction in RGS17 interaction with 6x-his-tagged biotinylated Galpha-o interaction at 100 uM by Alpha-screen assay
[6] = target: T1, Regulator of G-protein signaling 17 (Homo sapiens); assay: Covalent binding affinity to N-terminal deficient RGS17 (unknown origin) assessed as covalent protein-compound adduct formation at 50 uM incubated for 1 hr by MALDI-TOF mass spectrometry
[7] = target: T1, Regulator of G-protein signaling 17 (Homo sapiens); assay: Inhibition of cell membrane translocation of N-terminal GFP tagged and N-terminal deficient RGS17 (unknown origin) expressed in HEK293T cells co-expressing Galpha-o assessed as induction of delocalization of RGS17deltaN to cytoplasm at 100 uM incubated for 10 mins by confocal microscopy; type: cell-based
HEK-293T = assay: Cytotoxicity in HEK293T cells co-expressing Galpha-o at 100 uM incubated for 10 mins; type: cell-based; details: human
[8] = target: T1, Regulator of G-protein signaling 17 (Homo sapiens); assay: Inhibition of cell membrane translocation of N-terminal GFP tagged and N-terminal deficient RGS17 (unknown origin) expressed in HEK293T cells co-expressing Galpha-o assessed as induction of delocalization of RGS17deltaN to cytoplasm at 10 uM incubated for 10 mins by confocal microscopy; type: cell-based
[9] = target: T1, Regulator of G-protein signaling 17 (Homo sapiens); assay: Inhibition of cell membrane translocation of N-terminal GFP tagged full length RGS17 (unknown origin) expressed in HEK293T cells co-expressing Galpha-o at 100 uM incubated for 10 mins by confocal microscopy; type: cell-based

CC(C)=CCC[C@]1(C)C=Cc2c(O)c3c(c(CC=C(C)C)c2O1)O[C@]12C(=C[C@@H]4C[C@H]1C(C)(C)O[C@@]2(C/C=C(/C)C(=O)O)C4=O)C3=O [GAMBOGIC ACID]
inhibition [1]: Dose-dependent effect | Activity [2]: Active | Activity [3]: Active | inhibition [4]: Active | inhibition [5]: inactive | Activity [6]: inactive | inhibition [7]: inactive | Activity (HEK-293T): Toxic

CC1=C(O)C(=O)C=C2C1=CC=C1[C@@]2(C)CC[C@@]2(C)[C@@H]3C[C@](C)(C(=O)O)CC[C@]3(C)CC[C@]12C
inhibition [1]: Dose-dependent effect | ΔTm [2]: 1.4 °C | inhibition [4]: Active | inhibition [5]: inactive | Activity [6]: inactive | inhibition [7]: Active | inhibition [8]: Active

Cc1ccc(-n2sc(=O)n(Cc3ccc(F)cc3)c2=O)cc1
inhibition [7]: inactive

C[n+]1cc2c3c(ccc2c2ccc4cc5c(cc4c21)OCO5)OCO3
inhibition [1]: Dose-dependent effect | ΔTm [2]: 2.1 °C | inhibition [4]: Active | inhibition [5]: inactive | Activity [6]: inactive | inhibition [9]: inactive | inhibition [7]: Active | inhibition [8]: Active

O=c1c(-c2cc(O)c(O)c(O)c2)coc2cc(O)c(O)c(O)c12
inhibition [1]: Dose-dependent effect | ΔTm [2]: 1 °C | inhibition [4]: Active | inhibition [5]: inactive | Activity [6]: inactive | inhibition [7]: Active | inhibition [8]: Active
